Columns and labels:
neointimal formation = details: rats; cited from earlier work
CDK6/cyclin D1 = CDK6/cyclin D1 (Homo sapiens (Human), UniProt Q00534); assay: Biochemical kinase inhibitory assay, CDK6/cyclin D1; details: in the presence of 10 μM ATP
Description: Potency determination in the biochemical kinase inhibitory assay. Kinase activity assay and IC50 determination. […] The kinase reaction was initiated by the addition of 1 μg (1.5 μM) of recombinant retinoblastoma protein, 5 μM ATP and 10μ Ci γ-32P-ATP. The reaction was incubated at 30° C. for 20 minutes, and the reaction was stopped by the addition of 2× Laemmli sample buffer, heated at 95° C. for three minutes, and dissolved in 12% acrylamide SDS-PAGE for autoradiography. The corresponding phosphorylated substrate protein bands were quantified using a densitometer (Bio-Rad). […] The compounds disclosed herein were tested in a similar manner for their inhibitory activities against CDK6/cyclin D1, CDK2/cyclin A, CDK5/cyclin P25, CDK9/cyclin Ti, CDK7/cyclin H and CDK19/cyclin C. […] The reaction took place in the presence of 10 μM ATP.

CDK4/cyclin D1 = CDK4/cyclin D1 (Homo sapiens (Human), UniProt P11802); assay: Biochemical kinase inhibitory assay, CDK4/cyclin D1; details: recombinant CDK4/cyclin D1; in the presence of 10 μM ATP
Chain of CDK4/cyclin D1 (P11802 whole entry): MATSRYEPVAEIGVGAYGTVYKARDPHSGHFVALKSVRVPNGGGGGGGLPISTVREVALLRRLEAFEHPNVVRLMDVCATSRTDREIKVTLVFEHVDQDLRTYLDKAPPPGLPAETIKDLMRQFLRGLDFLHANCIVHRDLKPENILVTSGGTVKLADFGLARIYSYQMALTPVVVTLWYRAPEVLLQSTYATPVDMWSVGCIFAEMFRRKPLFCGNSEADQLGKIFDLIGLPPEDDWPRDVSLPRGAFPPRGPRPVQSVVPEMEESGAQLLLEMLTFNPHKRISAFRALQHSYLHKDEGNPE
Chain of CDK4/cyclin D1 (P24385 whole entry partner): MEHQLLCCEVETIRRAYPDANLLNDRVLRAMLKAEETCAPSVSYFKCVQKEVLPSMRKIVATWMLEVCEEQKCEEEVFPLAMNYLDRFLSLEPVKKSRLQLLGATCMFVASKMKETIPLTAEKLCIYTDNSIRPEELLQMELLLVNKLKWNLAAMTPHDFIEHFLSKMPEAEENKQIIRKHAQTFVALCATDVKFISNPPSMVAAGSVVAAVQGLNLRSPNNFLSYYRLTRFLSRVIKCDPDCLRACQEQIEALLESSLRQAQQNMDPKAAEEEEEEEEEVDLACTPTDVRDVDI
Description: Potency determination in the biochemical kinase inhibitory assay. Kinase activity assay and IC50 determination. […] The kinase reaction was initiated by the addition of 1 μg (1.5 μM) of recombinant retinoblastoma protein, 5 μM ATP and 10μ Ci γ-32P-ATP. The reaction was incubated at 30° C. for 20 minutes, and the reaction was stopped by the addition of 2× Laemmli sample buffer, heated at 95° C. for three minutes, and dissolved in 12% acrylamide SDS-PAGE for autoradiography. The corresponding phosphorylated substrate protein bands were quantified using a densitometer (Bio-Rad). […] The reaction took place in the presence of 10 μM ATP.

Chain of CDK6/cyclin D1 (Q00534 whole entry): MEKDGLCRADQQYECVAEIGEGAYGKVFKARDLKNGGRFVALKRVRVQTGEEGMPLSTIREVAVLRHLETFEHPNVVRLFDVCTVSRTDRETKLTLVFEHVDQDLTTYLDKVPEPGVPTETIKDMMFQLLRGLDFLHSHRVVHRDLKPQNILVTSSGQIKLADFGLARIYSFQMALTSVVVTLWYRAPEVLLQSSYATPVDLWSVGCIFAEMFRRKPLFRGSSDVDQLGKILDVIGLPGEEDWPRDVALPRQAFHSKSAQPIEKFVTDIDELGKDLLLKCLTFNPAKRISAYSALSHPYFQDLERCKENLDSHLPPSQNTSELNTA
Chain of CDK6/cyclin D1 (P24385 whole entry partner): as the sequence (P24385 whole entry partner) above

SMILES	inhibition of neointimal formation (neointimal formation)	IC50 (CDK6/cyclin D1) [nM]	IC50 (CDK4/cyclin D1) [nM]
COc1ccc(CNc2nc(N(CCO)CCO)nc3c2ncn3C(C)C)cc1 [CVT-313]	more than 80%	–	–
Cc1cc(Nc2ncc3ccc4ncn(C5CCCC5)c4c3n2)ncc1N1CCOCC1 [Compound I-61]	–	2 to 10	2 to 10
Cc1cc2ncn(C(C)C)c2c2nc(Nc3ccc(N4CCNCC4)cn3)ncc12 [Compound I-62]	–	50 to 100	50 to 100
Cc1cc(Nc2ncc3c(C)cc4ncn(C(C)C)c4c3n2)ncc1N1CCNCC1 [Compound I-63]	–	50 to 100	50 to 100
Cc1nc(Nc2ncc3c(C)cc4ncn(C(C)C)c4c3n2)ccc1N1CCNCC1 [Compound I-64]	–	50 to 100	50 to 100
Cc1cc2ncn(C(C)C)c2c2nc(Nc3ccc(N4CCOCC4)cn3)ncc12 [Compound I-65]	–	50 to 100	50 to 100
Cc1cc2ncn(C(C)C)c2c2nc(Nc3ccc(N4CCOC(C)C4)cn3)ncc12 (stereo not drawn) [Compound I-66]	–	50 to 100	50 to 100
CC(C)n1cnc2c(Br)cc3cnc(Nc4ccc(N5CCNCC5)cn4)nc3c21 [Compound I-67]	–	2 to 10	2 to 10
Cc1cc(Nc2ncc3cc(Br)c4ncn(C(C)C)c4c3n2)ncc1N1CCNCC1 [Compound I-68]	–	2 to 10	2 to 10
Cc1nc(Nc2ncc3cc(Br)c4ncn(C(C)C)c4c3n2)ccc1N1CCNCC1 [Compound I-69]	–	2 to 10	2 to 10
CC(C)n1cnc2c(Br)cc3cnc(Nc4ccc(N5CCOCC5)cn4)nc3c21 [Compound I-70]	–	2 to 10	2 to 10
CC(C)n1cnc2c(Br)cc3cnc(Nc4ccc(N5CCC6(CC5)CNC6)cn4)nc3c21 [Compound I-71]	–	10 to 50	10 to 50
Cc1cc2cnc(Nc3ccc(N4CCNCC4)cn3)nc2c2c1ncn2C(C)C [Compound I-72]	–	2 to 10	2 to 10
Cc1cc(Nc2ncc3cc(C)c4ncn(C(C)C)c4c3n2)ncc1N1CCNCC1 [Compound I-73]	–	2 to 10	2 to 10
Cc1nc(Nc2ncc3cc(C)c4ncn(C(C)C)c4c3n2)ccc1N1CCNCC1 [Compound I-74]	–	2 to 10	2 to 10
Cc1cc2cnc(Nc3ccc(N4CCOCC4)cn3)nc2c2c1ncn2C(C)C [Compound I-75]	–	2 to 10	2 to 10
Cc1cc(Nc2ncc3cc(C)c4ncn(C(C)C)c4c3n2)ncc1N1CCOCC1 [Compound I-76]	–	10 to 50	10 to 50

— US12428423B2, “1H-imidazo[4,5-h]quinazoline compound as protein kinase inhibitor” (SHENGKE PHARMACEUTICALS (JIANGSU) LTD., priority 2017, dated 2025)
